Assay results: patent publication US8211886B2, “Thiadiazinone derivatives” (Merck Patent Gesellschaft mit beschrankter Haftung, priority 2007, dated 2012)

Biological target: T1, Met kinase (Homo sapiens, UniProt P08581)
T1 construct: 6His (N); purchased Upstate 14-526; host or cells: Sf21 insect cells (S. frugiperda), baculovirus
Assay: Met kinase inhibition (enzyme assay), flashplate method
Type: biochemical
Settings: 33P-ATP, substrate pAGLT, 3 hrs at room temperature
Description: According to the manufacturer's data (Met, active, upstate, catalogue No. 14-526), Met kinase is expressed for the purposes of protein production in insect cells (Sf21; S. frugiperda) and subsequent affinity-chromatographic purification as “N-terminal 6His-tagged” recombinant human protein in a baculovirus expression vector.
Flashplate Method (Met Kinase)
The test plates used are 96-well Flashplate^R microtitre plates from Perkin Elmer (Cat. No. SMP200). The components of the kinase reaction described below are pipetted into the assay plate. The Met kinase and the substrate poly Ala-Glu-Lys-Tyr, (pAGLT, 6:2:5:1), are incubated for 3 hrs at room temperature with radioactively labelled ^33P-ATP in the presence and absence of test substances in a total volume of 100 μl. The reaction is terminated using 150 μl of a 60 mM EDTA solution. After incubation for a further 30 min at room temperature, the supernatants are filtered off with suction, and the wells are washed three times with 200 μl of 0.9% NaCl solution each time. The measurement of the bound radioactivity is carried out by means of a scintillation measuring instrument (Topcount NXT, Perkin-Elmer).
The full value used is the inhibitor-free kinase reaction. This should be approximately in the range 6000-9000 cpm. The pharmacological zero value used is staurosporin in a final concentration of 0.1 mM. The inhibitory values (IC50) are determined using the RS1_MTS program.
Kinase reaction conditions per well: • 30 μl of assay buffer • 10 μl of substance to be tested in assay buffer with 10% of DMSO • 10 μl of ATP (final concentration 1 μM cold, 0.35 μCi of ^33P-ATP) • 50 μl of Met kinase/substrate mixture in assay buffer; • (10 ng of enzyme/well, 50 ng of pAGLT/well)
Solutions used: • Assay buffer: • 50 mM HEPES • 3 mM magnesium chloride • 3 μM sodium orthovanadate • 3 mM manganese(II) chloride • 1 mM dithiothreitol (DTT) • pH=7.5 (to be set using sodium hydroxide) • Stop solution: • 60 mM Titriplex III (EDTA) • ^33P-ATP: Perkin-Elmer; • Met kinase: Upstate, Cat. No. 14-526, Stock 1 μg/10 μl; spec. activity 954 U/mg; • Poly-Ala-Glu-Lys-Tyr, 6:2:5:1: Sigma Cat. No. P1152 In-vivo Tests (FIG. 1/1)

T1 sequence (P08581 25-1390): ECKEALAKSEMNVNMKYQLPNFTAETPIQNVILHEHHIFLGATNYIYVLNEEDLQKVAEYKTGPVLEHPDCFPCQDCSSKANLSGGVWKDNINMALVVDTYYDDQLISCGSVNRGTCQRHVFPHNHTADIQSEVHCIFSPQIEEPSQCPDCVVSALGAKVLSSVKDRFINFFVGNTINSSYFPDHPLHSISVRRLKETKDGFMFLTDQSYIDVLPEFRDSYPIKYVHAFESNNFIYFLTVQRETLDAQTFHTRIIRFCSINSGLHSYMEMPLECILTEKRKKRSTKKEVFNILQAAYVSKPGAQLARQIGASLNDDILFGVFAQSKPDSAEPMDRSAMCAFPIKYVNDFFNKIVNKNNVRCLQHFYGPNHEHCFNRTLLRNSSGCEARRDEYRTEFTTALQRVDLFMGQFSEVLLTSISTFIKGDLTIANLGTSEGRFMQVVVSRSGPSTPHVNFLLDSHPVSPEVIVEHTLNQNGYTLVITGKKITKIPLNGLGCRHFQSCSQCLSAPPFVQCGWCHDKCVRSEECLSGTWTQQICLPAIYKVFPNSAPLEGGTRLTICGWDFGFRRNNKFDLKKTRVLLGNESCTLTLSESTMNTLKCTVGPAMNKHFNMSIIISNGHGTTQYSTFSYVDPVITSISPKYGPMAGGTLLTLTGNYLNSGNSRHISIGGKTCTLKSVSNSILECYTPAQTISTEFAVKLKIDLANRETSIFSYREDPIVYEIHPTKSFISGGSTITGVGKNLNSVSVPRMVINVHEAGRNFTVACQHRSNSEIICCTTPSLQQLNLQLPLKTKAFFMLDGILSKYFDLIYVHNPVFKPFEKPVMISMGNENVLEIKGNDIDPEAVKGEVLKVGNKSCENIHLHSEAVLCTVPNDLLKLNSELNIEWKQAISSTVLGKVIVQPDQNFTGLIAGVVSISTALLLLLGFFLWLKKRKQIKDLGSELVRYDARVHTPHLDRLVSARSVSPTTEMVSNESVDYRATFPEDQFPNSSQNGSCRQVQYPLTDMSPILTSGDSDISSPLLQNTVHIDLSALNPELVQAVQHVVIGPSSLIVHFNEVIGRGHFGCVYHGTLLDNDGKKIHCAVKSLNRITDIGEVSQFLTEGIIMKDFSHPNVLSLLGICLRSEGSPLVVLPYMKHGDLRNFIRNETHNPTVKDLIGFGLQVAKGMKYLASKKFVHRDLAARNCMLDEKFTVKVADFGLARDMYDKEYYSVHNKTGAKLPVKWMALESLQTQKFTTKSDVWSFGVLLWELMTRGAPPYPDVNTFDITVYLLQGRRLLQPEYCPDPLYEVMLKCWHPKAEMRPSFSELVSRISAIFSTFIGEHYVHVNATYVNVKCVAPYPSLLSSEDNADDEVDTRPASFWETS

IC50 [µM] | Compound
0.01 to 1 | Cc1cnc(-c2cccc(CN3N=C(c4nccs4)CSC3=O)c2)nc1 [Compound A1, 3-[3-(5-methylpyrimidin-2-yl)benzyl]-5-thiazol-2-yl-3,6-dihydro-1,3,4-thiadiazin-2-one]
0.01 to 1 | CN(C)/C=N/c1cnc(-c2cccc(CN3N=C(c4nccs4)CSC3=O)c2)nc1 [Compound A2, N,N-Dimethyl-N′-{2-[3-(2-oxo-5-thiazol-2-yl-6H-1,3,4-thiadiazin-3-ylmethyl)phenyl]pyrimidin-5-yl}formamidine]
1 to 10 | Cc1nc(-c2cccc(CN3N=C(c4nccs4)CSC3=O)c2)no1 [Compound A3, 3-[3-(5-Methyl-1,2,4-oxadiazol-3-yl)benzyl]-5-thiazol-2-yl-3,6-dihydro-1,3,4-thiadiazin-2-one]
0.01 to 1 | Nc1cnc(-c2cccc(CN3N=C(c4cc(F)cc(F)c4)CSC3=O)c2)nc1 [Compound A4, 3-[3-(5-aminopyrimidin-2-yl)benzyl]-5-(3,5-difluorophenyl)-3,6-dihydro-1,3,4-thiadiazin-2-one]
0.01 to 1 | COc1ccc(C2=NN(Cc3cccc(-c4ncc(N)cn4)c3)C(=O)SC2)cc1OC [Compound A5, 3-[3-(5-Aminopyrimidin-2-yl)benzyl]-5-(3,4-dimethoxyphenyl)-3,6-dihydro-1,3,4-thiadiazin-2-one]
0.01 to 1 | N#Cc1ccc(C2=NN(Cc3cccc(-c4ncc(N)cn4)c3)C(=O)SC2)cc1 [Compound A6, 4-{3-[3-(5-Aminopyrimidin-2-yl)benzyl]-2-oxo-3,6-dihydro-2H-1,3,4-thiadiazin-5-yl}benzonitrile]
0.01 to 1 | CN(C)CCCOc1cnc(-c2cccc(CN3N=C(c4nccs4)CSC3=O)c2)nc1 [Compound A7, 3-{3-[5-(3-Dimethylaminopropoxy)pyrimidin-2-yl]benzyl}-5-thiazol-2-yl-3,6-dihydro-1,3,4-thiadiazin-2-one]
0.01 to 1 | CN(C)CCCOc1cnc(-c2cccc(CN3N=C(c4cc(F)cc(F)c4)CSC3=O)c2)nc1 [Compound A8, 5-(3,5-Difluorophenyl)-3-{3-[5-(3-dimethylamino-propoxy)pyrimidin-2-yl]benzyl}-3,6-dihydro-1,3,4-thiadiazin-2-one]
0.01 to 1 | CN(C)CCCOc1cnc(-c2cccc(CN3N=C(c4ccc(C#N)cc4)CSC3=O)c2)nc1 [Compound A9, 4-(3-{3-[5-(3-Dimethylaminopropoxy)pyrimidin-2-yl]-benzyl}-2-oxo-3,6-dihydro-2H-1,3,4-thiadiazin-5-yl)-benzonitrile]
0.01 to 1 | Nc1cnc(-c2cccc(CN3N=C(c4nccs4)CSC3=O)c2)nc1 [Compound A10, 3-[3-(5-Aminopyrimidin-2-yl)benzyl]-5-thiazol-2-yl-3,6-dihydro-1,3,4-thiadiazin-2-one]
